Consider five compounds from patent US20210388031A1, “Designer Peptide Opsonins” (New Jersey Institute of Technology, priority 2020, published 2021).

As a reminder, the IC50 is the point on the concentration scale where inhibition reaches its midpoint. Lower therefore signals inhibition by little substance. The solubility is the dissolved amount per volume that the medium holds. Read a high solubility as a readily soluble substance.

Read-outs that look alike come from different tables or passages of the source. A value given as a limit tells only on which side of the number the result lay.

Data set [1] deals with SARS-CoV-2.
Data set [2] relates to A549 cell. Kind of data set: A549 cell cytocompatibility. As to conditions: data not shown.
For data set [3] the following is noted: 37° C., LC/MS, FIG. 6D.
For data set [4] the following is noted: rats IV.
A short description of data set [5]: Solubility of nanofibers in aqueous phosphate buffer. It is filed as physicochemical. The procedure:
(i) SAPs are customizable solid phase peptide synthesized peptides. They are based on the canonical sequence K-(SL)6-K [SEQ.1] which aggregates via β-sheet interactions of the (SL) midblock to form fibers with polar lysine termini.^47,51 These 10-15 nm wide, 1-2 nm tall, 100s nm-μm long nanofibers are highly soluble >40 mg/mL (4w %) in aqueous phosphate buffer, FIG. 2 A-D.^57,58,60
Formed are fibers with polar glutamic acid termini. These ˜10 nm wide×1-2 nm tall, 100s nm-μm long nanofibers are highly soluble >40 mg/mL (4w %) in aqueous phosphate buffer, FIG. 3. […] Given straightforward SPPS synthesis with excellent (>90% crude purity), scalable manufacture (worldwide) of this peptide is assured.

Data set [6] is described as follows: Anti-drug antibodies. As to conditions: in vivo.

Turning to QYKTYIDKNNHYAEDERYK [SBP3], in data set [1] (binding domain alone, binds to the Spike protein), the IC50 result is recorded as “μM-nM”.

For the compound “Ac-ESLSLSLSLSLSLEGSALEEGQLKTFLDKFMHELEDLLYQLAL-NH2 (N-terminus and C-terminus assumed) [ESBP2]”, the A549 cell cytocompatibility entry in data set [2] is given as “excellent”. Further, the “stability of drug formulation” value in data set [3] is given as “over 10 days”. Also, the IV clearance result in data set [4] (FIG. 6C) was “approximately 4 hrs”. Moreover, in data set [1], the IC50 is below 10 nM and the “Plaque Reduction (10 μM, n-4)” value is reported as 74%. Besides, where the note is “rats, 1% blood volume of 1 mM peptides, FIG. 6B”, the “adverse reaction, 10 day repeat dosing” value is “no adverse reaction”.

In data set [5], `CC(=O)N[C@@H](CCCCN)C(=O)N[C@@H](CO)C(=O)N[C@@H](CC(C)C)C(=O)N[C@@H](CO)C(=O)N[C@@H](CC(C)C)C(=O)N[C@@H](CO)C(=O)N[C@@H](CC(C)C)C(=O)N[C@@H](CO)C(=O)N[C@@H](CC(C)C)C(=O)N[C@@H](CO)C(=O)N[C@@H](CC(C)C)C(=O)N[C@@H](CO)C(=O)N[C@@H](CC(C)C)C(=O)N[C@@H](CCCCN)C(N)=O` [K-(SL)6-K] came in with a solubility above 40 mg/mL.

As for “Ac-ESLSLSLSLSLSLEGQYKTYIDKNNHYAEDERYK-NH2 (N-terminus and C-terminus assumed) [ESBP3]”, the clearance in data set [4] was 4 to 6 h. Further, in data set [1], the “IC50 improved compared to SBP3 alone” value is “orders of magnitude improved”. In data set [6], the “anti-drug antibodies (ADA)” value is recorded as “none seen to date”. Moreover, the safety profile result (daily >1 mM @ 1% blood volume (~200 μL) in rats IV) is on record as “excellent safety profile”.

Turning to SALEEQLKTFLDKFMHELEDLLYQLAL [SBP2], the “Plaque Reduction (10 μM, n-4)” value in data set [1] amounted to 88%.
